From patent publication US20240252488A1 (KOREA RESEARCH INSTITUTE OF CHEMICAL TECHNOLOGY, priority 2020, published 2024)

What was measured:
FADD−/− Jurkat cells = experiment: Necroptosis inhibition assay, TNF-α-induced necroptosis (CellTiter-Glo 2.0); assay type: cell-based, human; details: TNF-α 15 ng/mL; for Necroptosis inhibition assay (Rescue %) 1 μM: compound 1 μM; for Necroptosis inhibition assay (Rescue %) 10 μM: compound 10 μM
Summary of the method: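 Cmpd 0.1/1/10 μM final, 30 min RT preincubation; TNF-α 15 ng/mL final; 20–24 h, 37° C, 5% CO2. Readout: ATP luminescence (reagent 1:3 in PBS), 0.5 s/well. Cytotoxicity and % necroptosis inhibition calculated from signal.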

MLKL = biological target: T1, MLKL (Homo sapiens, UniProt Q8NB16); experiment: Measurement of binding affinity with MLKL receptor (competitive binding assay, Kd); design: made in house; host or cells: HEK 293 cell line (T7 phage in E. coli BL21-derived host is also described)
T1 sequence (Q8NB16 1-471): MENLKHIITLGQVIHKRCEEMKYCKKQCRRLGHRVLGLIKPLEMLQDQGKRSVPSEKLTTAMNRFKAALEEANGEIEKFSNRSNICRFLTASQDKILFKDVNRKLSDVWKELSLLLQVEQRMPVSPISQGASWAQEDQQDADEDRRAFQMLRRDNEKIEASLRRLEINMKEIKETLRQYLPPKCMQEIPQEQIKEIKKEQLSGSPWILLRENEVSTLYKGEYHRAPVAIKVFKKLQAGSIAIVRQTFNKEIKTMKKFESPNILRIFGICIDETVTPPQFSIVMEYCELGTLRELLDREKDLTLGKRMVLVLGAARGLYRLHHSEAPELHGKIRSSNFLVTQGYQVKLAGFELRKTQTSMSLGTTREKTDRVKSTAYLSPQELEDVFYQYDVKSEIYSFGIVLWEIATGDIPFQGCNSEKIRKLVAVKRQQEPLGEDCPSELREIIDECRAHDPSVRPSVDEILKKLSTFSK
Summary of the method: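 Kd comes from a bead-based competition format: compound-dependent loss of DNA-tagged, HEK 293-expressed MLKL capture, measured as eluate kinase by qPCR. Final DMSO is 0.9%.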

Nc1ncc(-c2cnn(C3CCN(CCCCCCCCCCNc4ccc5c(c4)C(=O)N(C4CCC(=O)NC4=O)C5=O)CC3)c2)nc1C(=O)O[C@@H](C(=O)Nc1ccc(F)cc1)c1ccccc1 (stereo partly drawn) [TDH-160, (R)-2-((4-fluorophenyl)amino)-2-oxo-1-phenylethyl 3-amino-6-(1-(1-(10-((2-(2,6-dioxopiperidin-3-yl)-1,3-dioxoisoindolin-5-yl)amino)decyl)piperidin-4-yl)-1H-pyrazol-4-yl)pyrazine-2-carboxylate]
Necroptosis inhibition assay (Rescue %) 1 μM (FADD−/− Jurkat cells): 3.59%
Kd (MLKL): 9.4 nM

Nc1ncc(-c2cnn(C3CCN(CCCN4CCN(C(=O)CNc5ccc6c(c5)C(=O)N(C5CCC(=O)NC5=O)C6=O)CC4)CC3)c2)nc1C(=O)N[C@@H](C(=O)Nc1ccc(F)cc1)c1ccccc1 (stereo partly drawn) [TDH-493, 3-amino-6-(1-(1-(3-(4-((2-(2,6-dioxopiperidin-3-yl)-1,3-dioxoisoindolin-5-yl)glycyl)piperazin-1-yl)propyl)piperidin-4-yl)-1H-pyrazol-4-yl)-N-((R)-2-((4-fluorophenyl)amino)-2-oxo-1-phenylethyl)pyrazine-2-carboxamide]
Necroptosis inhibition assay (Rescue %) 1 μM (FADD−/− Jurkat cells; FADD−/− Jurkat cells): 1.49%
Necroptosis inhibition assay (Rescue %) 10 μM (FADD−/− Jurkat cells; FADD−/− Jurkat cells): −3.98%
Kd (MLKL): 91 nM

Cl.Nc1ncc(-c2cnn(C3CCNCC3)c2)cc1C(=O)O[C@@H](C(=O)Nc1ccc(F)cc1)c1ccccc1 [TDH-112, (R)-2-((4-fluorophenyl)amino)-2-oxo-1-phenylethyl 2-amino-5-(1-(piperidin-4-yl)-1H-pyrazol-4-yl)nicotinate hydrochloride]
Necroptosis inhibition assay (Rescue %) 1 μM (FADD−/− Jurkat cells): 20.24%
Kd (MLKL): 2 nM

Nc1ncc(C2=CCN(C(=O)CCCCCNc3cccc4c3C(=O)N(C3CCC(=O)NC3=O)C4=O)CC2)cc1C(=O)O[C@@H](C(=O)Nc1ccc(F)cc1)c1ccccc1 (stereo partly drawn) [TDH-073, (R)-2-((4-fluorophenyl)amino)-2-oxo-1-phenylethyl 6-amino-1′-(6-((2-(2,6-dioxopiperidin-3-yl)-1,3-dioxoisoindolin-4-yl)amino)hexanoyl)-1′,2′,3′,6′-tetrahydro-[3,4′-bipyridine]-5-carboxylate]
Necroptosis inhibition assay (Rescue %) 10 μM (FADD−/− Jurkat cells): 3.26%
Kd (MLKL): 210 nM

Nc1ncc(-c2cnn(C3CCN(CCOCCOCCNc4cccc5c4C(=O)N(C4CCC(=O)NC4=O)C5=O)CC3)c2)nc1C(=O)O[C@@H](C(=O)Nc1ccc(F)cc1)c1ccccc1 (stereo partly drawn) [TDH-121, (R)-2-((4-fluorophenyl)amino)-2-oxo-1-phenylethyl 3-amino-6-(1-(1-(2-(2-(2-((2-(2,6-dioxopiperidin-3-yl)-1,3-dioxoisoindolin-4-yl)amino)ethoxy)ethoxy)ethyl)piperidin-4-yl)-1H-pyrazol-4-yl)pyrazine-2-carboxylate]
Necroptosis inhibition assay (Rescue %) 1 μM (FADD−/− Jurkat cells): 2.96%
Kd (MLKL): 4.6 nM

Nc1ncc(C2=CCN(C(=O)CCCCCNC(=O)CNc3ccc4c(c3)C(=O)N(C3CCC(=O)NC3=O)C4=O)CC2)cc1C(=O)O[C@@H](C(=O)Nc1ccc(F)cc1)c1ccccc1 (stereo partly drawn) [TDH-072, (R)-2-((4-fluorophenyl)amino)-2-oxo-1-phenylethyl 6-amino-1′-(6-(2-((2-(2,6-dioxopiperidin-3-yl)-1,3-dioxoisoindolin-5-yl)amino)acetamido)hexanoyl)-1′,2′,3′,6′-tetrahydro-[3,4′-bipyridine]-5-carboxylate]
Necroptosis inhibition assay (Rescue %) 1 μM (FADD−/− Jurkat cells): 12.25%
Necroptosis inhibition assay (Rescue %) 10 μM (FADD−/− Jurkat cells): 1.53%
Kd (MLKL): 30 nM

Nc1ncc(-c2cnn(C3CCN(CCOCCOCCNC(=O)C4CN(c5ccc6c(c5)C(=O)N(C5CCC(=O)NC5=O)C6=O)C4)CC3)c2)nc1C(=O)O[C@@H](C(=O)Nc1ccc(F)cc1)c1ccccc1 (stereo partly drawn) [TDH-116, (R)-2-((4-fluorophenyl)amino)-2-oxo-1-phenylethyl 3-amino-6-(1-(1-(2-(2-(2-(1-(2-(2,6-dioxopiperidin-3-yl)-1,3-dioxoisoindolin-5-yl)azetidine-3-carboxamido)ethoxy)ethoxy)ethyl)piperidin-4-yl)-1H-pyrazol-4-yl)pyrazine-2-carboxylate]
Necroptosis inhibition assay (Rescue %) 1 μM (FADD−/− Jurkat cells): 16.8%
Necroptosis inhibition assay (Rescue %) 10 μM (FADD−/− Jurkat cells): 42.8%
Kd (MLKL): 2 nM

Nc1ncc(C2=CCN(C(=O)CCCCCNc3ccc4c(c3)C(=O)N(C3CCC(=O)NC3=O)C4=O)CC2)cc1C(=O)O[C@@H](C(=O)Nc1ccc(F)cc1)c1ccccc1 (stereo partly drawn) [TDH-075, (R)-2-((4-fluorophenyl)amino)-2-oxo-1-phenylethyl 6-amino-1′-(6-((2-(2,6-dioxopiperidin-3-yl)-1,3-dioxoisoindolin-5-yl)amino)hexanoyl)-1′,2′,3′,6′-tetrahydro-[3,4′-bipyridine]-5-carboxylate]
Necroptosis inhibition assay (Rescue %) 1 μM (FADD−/− Jurkat cells): 10.02%
Necroptosis inhibition assay (Rescue %) 10 μM (FADD−/− Jurkat cells): 9.05%
Kd (MLKL): 140 nM

Nc1ncc(-c2cnn(C3CCN(CCOCCOCCNc4cccc5c4C(=O)N(C4CCC(=O)NC4=O)C5=O)CC3)c2)nc1C(=O)N[C@@H](C(=O)Nc1ccc(F)cc1)c1ccccc1 (stereo partly drawn) [TDH-215, 3-amino-6-(1-(1-(2-(2-(2-((2-(2,6-dioxopiperidin-3-yl)-1,3-dioxoisoindolin-4-yl)amino)ethoxy)ethoxy)ethyl)piperidin-4-yl)-1H-pyrazol-4-yl)-N-((R)-2-((4-fluorophenyl)amino)-2-oxo-1-phenylethyl)pyrazine-2-carboxamide]
Necroptosis inhibition assay (Rescue %) 1 μM (FADD−/− Jurkat cells): 15.33%
Necroptosis inhibition assay (Rescue %) 10 μM (FADD−/− Jurkat cells): 21.83%
Kd (MLKL): 91 nM

Nc1ncc(C2=CCN(C(=O)CCCCCNC(=O)C3CN(c4ccc5c(c4)C(=O)N(C4CCC(=O)NC4=O)C5=O)C3)CC2)cc1C(=O)O[C@@H](C(=O)Nc1ccc(F)cc1)c1ccccc1 (stereo partly drawn) [TDH-092, (R)-2-((4-fluorophenyl)amino)-2-oxo-1-phenylethyl 6-amino-1′-(6-(1-(2-(2,6-dioxopiperidin-3-yl)-1,3-dioxoisoindolin-5-yl)azetidine-3-carboxamido)hexanoyl)-1′,2′,3′,6′-tetrahydro-[3,4′-bipyridine]-5-carboxylate]
Necroptosis inhibition assay (Rescue %) 1 μM (FADD−/− Jurkat cells): 2.1%
Kd (MLKL): 120 nM

CC(C)(C)OC(=O)N1CCC(n2cc(-c3cnc(N)c(C(=O)N[C@@H](C(=O)Nc4ccc(F)cc4)c4ccccc4)n3)cn2)CC1 [TDH-098, tert-butyl (R)-4-(4-(5-amino-6-((2-((4-fluorophenyl)amino)-2-oxo-1-phenylethyl)carbamoyl)pyrazin-2-yl)-1H-pyrazol-1-yl)piperidine-1-carboxylate]
Necroptosis inhibition assay (Rescue %) 1 μM (FADD−/− Jurkat cells): 3.54%
Kd (MLKL): 200 nM

Nc1ncc(C2=CCN(C(=O)COCCOCCNC(=O)C3CCN(c4cccc5c4C(=O)N(C4CCC(=O)NC4=O)C5=O)CC3)CC2)cc1C(=O)O[C@@H](C(=O)Nc1ccc(F)cc1)c1ccccc1 (stereo partly drawn) [TDH-088, (R)-2-((4-fluorophenyl)amino)-2-oxo-1-phenylethyl 6-amino-1′-(2-(2-(2-(1-(2-(2,6-dioxopiperidin-3-yl)-1,3-dioxoisoindolin-4-yl)piperidine-4-carboxamido)ethoxy)ethoxy)acetyl)-1′,2′,3′,6′-tetrahydro-[3,4′-bipyridine]-5-carboxylate]
Necroptosis inhibition assay (Rescue %) 1 μM (FADD−/− Jurkat cells): 4.62%
Kd (MLKL): 33 nM

Nc1ncc(C2=CCN(C(=O)COCCOCCNC(=O)CNc3cccc4c3C(=O)N(C3CCC(=O)NC3=O)C4=O)CC2)cc1C(=O)O[C@@H](C(=O)Nc1ccc(F)cc1)c1ccccc1 (stereo partly drawn) [TDH-084, (R)-2-((4-fluorophenyl)amino)-2-oxo-1-phenylethyl 6-amino-1′-(2-(2-(2-(2-((2-(2,6-dioxopiperidin-3-yl)-1,3-dioxoisoindolin-4-yl)amino)acetamido)ethoxy)ethoxy)acetyl)-1′,2′,3′,6′-tetrahydro-[3,4′-bipyridine]-5-carboxylate]
Necroptosis inhibition assay (Rescue %) 1 μM (FADD−/− Jurkat cells): 14.91%
Necroptosis inhibition assay (Rescue %) 10 μM (FADD−/− Jurkat cells): 3.95%
Kd (MLKL): 19 nM

Nc1ncc(-c2cn(C3CCN(CC4CCN(C(=O)C5CCN(c6ccc7c(c6)C(=O)N(C6CCC(=O)NC6=O)C7=O)CC5)CC4)CC3)nn2)nc1C(=O)OC(C(=O)Nc1ccc(F)cc1)c1ccccc1 (centres unmarked) [TDH-221, 2-((4-fluorophenyl)amino)-2-oxo-1-phenylethyl 3-amino-6-(1-(1-((1-(1-(2-(2,6-dioxopiperidin-3-yl)-1,3-dioxoisoindolin-5-yl)piperidine-4-carbonyl)piperidin-4-yl)methyl)piperidin-4-yl)-1H-1,2,3-triazol-4-yl)pyrazine-2-carboxylate]
Necroptosis inhibition assay (Rescue %) 1 μM (FADD−/− Jurkat cells): 53.65%
Necroptosis inhibition assay (Rescue %) 10 μM (FADD−/− Jurkat cells): 54.23%
Kd (MLKL): 27 nM
